These are literature values, as cited in patent US20040224076A1, “Dietetic composition in the form of a salt substitute for table salt” (priority 1998, published 2004).

For the data set the following is noted: oral supplementation, meta-analysis of 33 studies.

For `[K+]` [potassium], the “reduction for diastolic pressure” value is listed as 1.97 mm Hg and the “reduction for systolic pressure” value is on record as 3.11 mm Hg.
